Source: patent US11579152B2, “Engineered hERG channel proteins, vesicles and methods of identifying small molecule pharmacological agents” (priority 2016, dated 2023)
Where two headings read alike, the source gives them in different places.

Legend:
[1] = molecular target: T1, hERG channel (Homo sapiens, UniProt Q12809, DEL141-380/DEL871-1005)
[2] = molecular target: hERG (Homo sapiens, UniProt Q12809); settings: cited from earlier work
[3] = molecular target: T1, hERG channel; test: biochemical
[4] = molecular target: T1, hERG channel; test: in vitro; settings: pH 7.4
[5] = molecular target: T1, hERG channel; test: liposome flux assay (LFA) with engineered hERG channel protein in proteoliposomes; settings: n = 3, mean ± SEM, compared with DMSO controls
[6] = read-out: IC50 patch, electrophysiology-determined values reported in the literature

Q: For `N=C(N)SCCc1ccc(OCc2ccc([N+](=O)[O-])cc2)cc1` [KB-R7943], which IC50 [1] is on record?
A: Its IC50 is 1.78 ± 0.14 µM.

Q: And the IC50 [2, 6]?
A: Its IC50 is 0.089 µM.

Q: With `CN1CCN(CCCCN2C(=O)CN(/N=C/c3ccc(-c4ccc(Cl)cc4)o3)C2=O)CC1` [Azimilide] as the compound, how does the IC50 [2, 6] read?
A: Its IC50 is 0.891 µM.

Q: What about the IC50 [3] of the same compound?
A: Its IC50 is 4.28 ± 1.03 µM.

Q: For `CN(C)c1ccc(O)c2c1C[C@H]1C[C@H]3[C@H](N(C)C)C(O)=C(C(N)=O)C(=O)[C@@]3(O)C(O)=C1C2=O` [Minocycline], which inhibition at 100 µM [4] is on record?
A: Its inhibition at 100 µM is -2.5 ± 11.9%.

Q: For `CCN(CC)CCCN(c1ccccc1)C1Cc2ccccc2C1` [Aprindine], which IC50 [2, 6] is on record?
A: Its IC50 is 0.23 µM.

Q: What about the IC50 [3] of the same compound?
A: Its IC50 is 1.88 ± 0.221 µM.

Q: With `C[N+](C)(C)CCOC(N)=O` [Carbachol] as the compound, how does the inhibition at 100 µM [4] read?
A: Its inhibition at 100 µM is 2.2 ± 4.2%.

Q: Which IC50 [2, 6] does the source give for `CC(C(O)c1ccc(O)cc1)N1CCC(Cc2ccccc2)CC1` (centres unmarked) [Ifenprodil] here?
A: Its IC50 is 0.41 µM.

Q: And the IC50 [3]?
A: The IC50 was 1.59 ± 0.071 µM.

Q: With `CN/C(=N/CCSCc1nc[nH]c1C)NC#N` [Cimetidine] as the compound, how does the inhibition at 100 µM [4] read?
A: The inhibition at 100 µM was 19.9 ± 3.7%.

Q: Which inhibition at 100 µM [4] does the source give for `CC(=O)Nc1ccc(O)cc1` [Acetaminophen] here?
A: The inhibition at 100 µM was 11.6 ± 7.5%.

Q: For `COc1cc(Cc2cnc(N)nc2N)cc(OC)c1OC` [Trimethoprim], which inhibition at 100 µM [4] is on record?
A: The inhibition at 100 µM was 20.6 ± 1.9%.

Q: With `CC(C)Cc1ccc(C(C)C(=O)O)cc1` (centres unmarked) [Ibuprofen] as the compound, how does the inhibition at 100 µM [4] read?
A: The inhibition at 100 µM was 13.1 ± 2.1%.

Q: With `COc1ccccc1OCC(O)CO` (centres unmarked) [Guaifenesin] as the compound, how does the inhibition at 100 µM [4] read?
A: The inhibition at 100 µM was -3.5 ± 7.4%.

Q: With `Clc1cccc(Cl)c1N=C1NCCN1` [Clonidine] as the compound, how does the inhibition at 100 µM [4] read?
A: The inhibition at 100 µM was 15.2 ± 5.8%.

Q: With `C=C(CC)C(=O)c1ccc(OCC(=O)O)c(Cl)c1Cl` [Ethacrynic acid] as the compound, how does the inhibition at 100 µM [4] read?
A: Its inhibition at 100 µM is 8.1 ± 4.4%.

Q: For `CC(=O)Nc1nnc(S(N)(=O)=O)s1` [Acetazolamide], which inhibition at 100 µM [4] is on record?
A: Its inhibition at 100 µM is 4.4 ± 1.8%.

Q: With `CC1(C)O[C@H]1COc1c2ccoc2cc2oc(=O)ccc12` [Oxypeucedanin] as the compound, how does the inhibition at 100 µM [4] read?
A: The inhibition at 100 µM was 4.5 ± 19.3%.

Q: For `CC1=C(CC(=O)O)c2cc(F)ccc2/C1=C\c1ccc([S+](C)[O-])cc1` (centres unmarked) [Sulindac], which inhibition at 100 µM [4] is on record?
A: Its inhibition at 100 µM is 1.1 ± 2.8%.

Q: With Penicillin as the compound, how does the “Percentage inhibition (%) at 100 μM” value [5] read?
A: Its value is −0.4 ± 9.5%.

Q: With `COC[C@H]1OC(=O)c2coc3c2[C@@]1(C)C1=C(C3=O)[C@@H]2CCC(=O)[C@@]2(C)C[C@H]1OC(C)=O` [Wortmannin] as the compound, how does the inhibition at 100 µM [4] read?
A: Its inhibition at 100 µM is 1.7 ± 5.8%.

Q: Which inhibition at 100 µM [4] does the source give for `CC1Cc2ccccc2N1NC(=O)c1ccc(Cl)c(S(N)(=O)=O)c1` (centres unmarked) [Indapamide] here?
A: Its inhibition at 100 µM is 4.8 ± 6.7%.

Q: With `NC[C@H](O)c1ccc(O)c(O)c1` [Arterenol] as the compound, how does the “Percentage inhibition (%) at 100 μM” value [5] read?
A: Its value is 3.7 ± 4.3%.

Q: Which results are given for `O=c1n(CCCN2CCN(c3cccc(Cl)c3)CC2)nc2ccccn12` [Trazadone]?
A: IC50 [1]: 9.25 ± 0.529 µM; IC50 [2]: 0.69 to 2.9 µM

Q: For `CCCCOc1ccc(CC(=O)NO)cc1` [Bufexamac], which inhibition at 100 µM [4] is on record?
A: The inhibition at 100 µM was 1.7 ± 6.8%.

Q: Which “Percentage inhibition (%) at 100 μM” value ([1]; 100 µM) does the source give for `C[N+]1([O-])CCN(C2=Nc3cc(Cl)ccc3Nc3ccccc32)CC1` [Clozapine N-oxide] here?
A: Its value is 2.1 ± 3.0%.

Q: With `CC(=O)CC(c1ccccc1)c1c(O)c2ccccc2oc1=O` (centres unmarked) [Warfarin] as the compound, how does the inhibition at 100 µM [4] read?
A: The inhibition at 100 µM was 9.1 ± 5.5%.
